# Reference: PMC10331583, “Control of fibrosis with enhanced safety via asymmetric inhibition of prolyl‐tRNA synthetase 1” (EMBO Molecular Medicine, 2023)
# “And” between values parts separate entries of the source, which are not always exact repeats. Equal values may be shown once. Read-outs that look alike come from different tables or passages of the source.
# How the values were obtained:
# WI‐26 VA4 cells = assay: Collagen ELISA (secreted pro‐collagen I)
# Method: WI‐26 VA4 cells were seeded at 3.5 × 10^4 cells/well on 24 well plates. After 24 h, the cells were starved of serum for 6 h. Then, the cells were incubated with the indicated concentrations of compounds in the presence of TGF‐β (2 ng/ml) (R&D systems, 240‐B‐002) for 72 h. The supernatant of the cells was collected and centrifuged at 500 g for 5 min to remove cell debris. Then, the level of pro‐collagen I in the supernatant was determined using Human Pro‐collagen I alpha 1 DuoSet ELISA (R&D systems, DY6220‐05) and DuoSet ELISA Ancillary Reagent Kit 2 (R&D systems, DY008) following the manufacturer's instructions.
# [1] = tested on: WI‐26 VA4 cells stably expressing PARS1 FA/EA/RL mutant; assay: Collagen ELISA in cells stably expressing PARS1 mutant; settings: for Collagen level, average: average of 4 experiments; for Collagen level, single replicates: replicates of Experiments #1-#4
# [2] = tested on: TNT Quick Coupled Transcription/Translation System (luciferase synthesis); type: biochemical
# [3] = log(inhibitor) vs. response, variable slope (four parameters), concentration in nM
# [4] = WI-26 VA4 Flag-PARS1 FA/EA/RL, 30 nM
# [5] = WI-26 VA4 Flag-PARS1 FA/EA/RL, 100 nM
# [6] = WI-26 VA4 Flag-PARS1 FA/EA/RL, 300 nM
# [7] = WI-26 VA4 Flag-PARS1 FA/EA/RL, 1000 nM
# [8] = WI-26 VA4 Flag-PARS1 FA/EA/RL, 3000 nM
# [9] = WI-26 VA4 Flag-PARS1 FA/EA/RL, 10000 nM
# [10] = WI-26 VA4 Flag-PARS1 FA/EA/RL, 30000 nM
# [11] = WI-26 VA4 Flag-PARS1 FA/EA/RL, 100000 nM
# [12] = WI-26 VA4 Flag-PARS1 FA/EA/RL, 300000 nM
smiles,measurement,setting,value
O[C@H]1CCCN[C@@H]1CCCn1cnc2c(Cl)c(Cl)ccc21 [DWN12088],activity at 3 µM,"WI‐26 VA4 cells; Homo sapiens, WI26VA4, read-out: Collagen, % of control, average, 3000 nM, average",37.7%
same,activity at 10 µM,"WI‐26 VA4 cells; Homo sapiens, WI26VA4, read-out: Collagen, % of control, average, 10000 nM, average",15%
same,activity at 30 µM,"WI‐26 VA4 cells; Homo sapiens, WI26VA4, read-out: Collagen, % of control, average, 30000 nM, average",5.52%
same,activity at 100 µM,"WI‐26 VA4 cells; Homo sapiens, WI26VA4, read-out: Collagen, % of control, average, 100000 nM, average",4.05%
same,activity at 300 µM,"WI‐26 VA4 cells; Homo sapiens, WI26VA4, read-out: Collagen, % of control, average, 300000 nM, average",4.51%
same,activity at 0.03 µM,"WI‐26 VA4 cells; Homo sapiens, WI26VA4, read-out: Efficacy, % of control, average, 30 nM",102%
same,activity at 0.1 µM,"WI‐26 VA4 cells; Homo sapiens, WI26VA4, read-out: Efficacy, % of control, average, 100 nM",99.4%
same,activity at 0.3 µM,"WI‐26 VA4 cells; Homo sapiens, WI26VA4, read-out: Efficacy, % of control, average, 300 nM",107%
same,activity at 1 µM,"WI‐26 VA4 cells; Homo sapiens, WI26VA4, read-out: Efficacy, % of control, average, 1000 nM",82.3%
same,activity at 3 µM,"WI‐26 VA4 cells; Homo sapiens, WI26VA4, read-out: Efficacy, % of control, average, 3000 nM",35.4%
same,activity at 10 µM,"WI‐26 VA4 cells; Homo sapiens, WI26VA4, read-out: Efficacy, % of control, average, 10000 nM",11.9%
same,activity at 30 µM,"WI‐26 VA4 cells; Homo sapiens, WI26VA4, read-out: Efficacy, % of control, average, 30000 nM",3.71%
same,activity at 100 µM,"WI‐26 VA4 cells; Homo sapiens, WI26VA4, read-out: Efficacy, % of control, average, 100000 nM",2.52%
same,activity at 0.03 µM,"WI‐26 VA4 cells; Homo sapiens, WI26VA4, read-out: Efficacy, % of control, single replicate, 30 nM",113%
same,activity at 0.1 µM,"WI‐26 VA4 cells; Homo sapiens, WI26VA4, read-out: Efficacy, % of control, single replicate, 100 nM",108%
same,activity at 0.3 µM,"WI‐26 VA4 cells; Homo sapiens, WI26VA4, read-out: Efficacy, % of control, single replicate, 300 nM",114%
same,activity at 3 µM,"WI‐26 VA4 cells; Homo sapiens, WI26VA4, read-out: Efficacy, % of control, single replicate, 3000 nM",39%
same,activity at 10 µM,"WI‐26 VA4 cells; Homo sapiens, WI26VA4, read-out: Efficacy, % of control, single replicate, 10000 nM",10.1%
same,activity at 30 µM,"WI‐26 VA4 cells; Homo sapiens, WI26VA4, read-out: Efficacy, % of control, single replicate, 30000 nM",3.03%
same,IC50,"WI‐26 VA4 cells; Homo sapiens, WI26VA4, read-out: IC50 for collagen level",2000 nM
same,Collagen HillSlope (best-fit value),"WI‐26 VA4 cells; log(inhibitor) vs. response, variable slope (four parameters)",-1.329
same,Collagen LogIC50 (best-fit value),WI‐26 VA4 cells; [3],3.306
same,Relative (CC50)/(collagen IC50),"WI‐26 VA4 cells; relative to HF, Fig 5E",3.01
same,IC50,"[1]; Homo sapiens, WI26VA4, read-out: IC50, collagen level",1490 nM
same,CC50/collagen IC50,[1]; PARS1 FA/EA/RL cells,7.88
same,Relative (CC50)/(collagen IC50),"[1]; PARS1 FA/EA/RL cells, relative to EV",0.63
same,"Collagen level, average",[1]; [4],96.80 % of control
same,"Collagen level, single replicates",[1]; [4],101.27 % of control and 106.03 % of control and 102.09 % of control and 97.52 % of control and 107.38 % of control and 87.30 % of control and 97.03 % of control and 100.22 % of control and 82.11 % of control and 93.95 % of control and 95.06 % of control and 91.64 % of control
same,"Collagen level, average",[1]; [5],91.15 % of control
same,"Collagen level, single replicates",[1]; [5],92.43 % of control and 98.06 % of control and 99.31 % of control and 91.83 % of control and 92.72 % of control and 85.46 % of control and 90.73 % of control (2×) and 82.66 % of control and 81.56 % of control and 88.43 % of control and 99.91 % of control
same,"Collagen level, average",[1]; [6],79.61 % of control
same,"Collagen level, single replicates",[1]; [6],87.41 % of control and 88.18 % of control and 78.49 % of control and 71.44 % of control and 76.98 % of control and 80.63 % of control and 81.90 % of control and 76.13 % of control and 73.84 % of control and 86.07 % of control and 78.20 % of control and 75.99 % of control
same,"Collagen level, average",[1]; [7],62.53 % of control
same,"Collagen level, single replicates",[1]; [7],72.91 % of control and 64.62 % of control and 69.50 % of control and 60.49 % of control and 52.43 % of control and 63.48 % of control and 72.89 % of control and 52.77 % of control and 57.64 % of control and 59.18 % of control and 66.74 % of control and 57.76 % of control
same,"Collagen level, average",[1]; [8],26.56 % of control
same,"Collagen level, single replicates",[1]; [8],25.97 % of control and 27.35 % of control and 25.49 % of control and 26.93 % of control and 30.39 % of control and 26.86 % of control and 25.02 % of control and 29.58 % of control and 24.14 % of control and 24.80 % of control and 25.63 % of control and 26.57 % of control
same,"Collagen level, average",[1]; [9],4.37 % of control
same,"Collagen level, single replicates",[1]; [9],4.38 % of control and 3.58 % of control and 3.17 % of control and 5.34 % of control and 4.53 % of control and 5.67 % of control and 3.18 % of control and 3.93 % of control and 4.88 % of control and 4.67 % of control and 4.47 % of control and 4.59 % of control
same,"Collagen level, average",[1]; [10],2.20 % of control
same,"Collagen level, single replicates",[1]; [10],2.07 % of control and 2.38 % of control and 2.98 % of control and 3.14 % of control and 2.40 % of control and 2.09 % of control and 1.49 % of control and 1.46 % of control and 1.88 % of control (2×) and 2.96 % of control and 1.71 % of control
same,"Collagen level, average",[1]; [11],1.94 % of control
same,"Collagen level, single replicates",[1]; [11],2.11 % of control and 2.24 % of control and 1.83 % of control and 2.90 % of control and 1.40 % of control and 1.89 % of control and 1.44 % of control and 1.33 % of control and 1.75 % of control and 1.90 % of control and 2.31 % of control and 2.15 % of control
same,"Collagen level, average",[1]; [12],1.36 % of control
same,"Collagen level, single replicates",[1]; [12],1.67 % of control and 0.92 % of control and 0.84 % of control and 1.94 % of control
same,"HillSlope, collagen level","[1]; WI-26 VA4 Flag-PARS1 FA/EA/RL, four-parameter fit",-1.331
same,"LogIC50, collagen level","[1]; WI-26 VA4 Flag-PARS1 FA/EA/RL, log of concentration in nM, four-parameter fit",3.174
same,TNT-luciferase % of control,"[2]; 2000 nM, Experiment #1, replicates, 2 µM",107.63 % of control and 97.97 % of control and 101.55 % of control
same,TNT-luciferase % of control,"[2]; 2000 nM, Experiment #2, replicates, 2 µM",104.64 % of control and 94.62 % of control and 88.50 % of control
same,"TNT-luciferase % of control, average",[2]; 2000 nM,99.15 % of control
same,TNT-luciferase % of control,"[2]; 6000 nM, Experiment #1, replicates, 6 µM",101.91 % of control and 104.41 % of control and 119.43 % of control
same,TNT-luciferase % of control,"[2]; 6000 nM, Experiment #2, replicates, 6 µM",96.85 % of control and 102.97 % of control and 104.64 % of control
same,"TNT-luciferase % of control, average",[2]; 6000 nM,105.03 % of control
same,TNT-luciferase % of control,"[2]; 20000 nM, Experiment #1, replicates, 20 µM",72.94 % of control (2×) and 59.71 % of control
same,TNT-luciferase % of control,"[2]; 20000 nM, Experiment #2, replicates, 20 µM",84.60 % of control (2×) and 85.71 % of control
same,"TNT-luciferase % of control, average",[2]; 20000 nM,76.75 % of control
same,TNT-luciferase % of control,"[2]; 60000 nM, Experiment #1, replicates, 60 µM",38.97 % of control and 46.84 % of control and 41.48 % of control
same,TNT-luciferase % of control,"[2]; 60000 nM, Experiment #2, replicates, 60 µM",51.21 % of control and 53.71 % of control and 53.43 % of control
same,"TNT-luciferase % of control, average",[2]; 60000 nM,47.61 % of control
same,TNT-luciferase % of control,"[2]; 200000 nM, Experiment #1, replicates, 200 µM",1.16 % of control and 1.03 % of control and 1.24 % of control
same,TNT-luciferase % of control,"[2]; 200000 nM, Experiment #2, replicates, 200 µM",6.68 % of control and 5.56 % of control and 5.68 % of control
same,"TNT-luciferase % of control, average",[2]; 200000 nM,3.56 % of control
same,TNT-luciferase % of control,"[2]; 600000 nM, Experiment #1, replicates, 600 µM",0.00561 % of control and 0.00168 % of control and 0.00107 % of control
same,TNT-luciferase % of control,"[2]; 600000 nM, Experiment #2, replicates, 600 µM",0.24 % of control and 0.28 % of control and 0.27 % of control
same,"TNT-luciferase % of control, average",[2]; 600000 nM,0.13 % of control
same,TNT-luciferase % of control,"[2]; 2000000 nM, Experiment #1, replicates, 2000 µM",0.00107 % of control and -0.00501 % of control and -0.00597 % of control
same,TNT-luciferase % of control,"[2]; 2000000 nM, Experiment #2, replicates, 2000 µM",0.0153 % of control and 0.00456 % of control and 0.00807 % of control
same,"TNT-luciferase % of control, average",[2]; 2000000 nM,0.00301 % of control
same,TNT-luciferase LogIC50 (best-fit value),[2]; [3],4.702
same,IC50,"[2]; log(inhibitor) vs. response, variable slope (four parameters), unit from head concentration (nM), read-out: TNT-luciferase IC50 (best-fit value)",50300 nM
